{"source": "patent US7351546B2", "about": "“Flow cytometric, whole blood dendritic cell immune function assay” (Becton, Dickinson and Company, priority 1998, dated 2008)", "assay_type_in_all_cases": "cell-based, human", "key": {"[1]": {"system": "CD11c^+ DCs", "experiment": "Cytokine kinetic assay in LPS activated CD11c+ DCs", "conditions": "1 μg/ml LPS, time course 0 to 8 hours", "experimental": "The time course of LPS incubation was 0 to 8 hours. Intracellular cytokine and CD80 expression is measured as PE mean fluorescence intensity (MFI).\nWhole blood was stimulated with 1 μg/ml LPS and incubated in polypropylene tubes (12×75 mm) at 37° C. in a humidified atmosphere containing 5% CO2. Aliquots were processed, essentially as set forth in Examples 1 and 2 above, every hour from 0 to 8 hrs post stimulation. One hour prior to each sample harvest, BFA was added at 10 μg/mL."}, "[2]": {"system": "monocytes", "conditions": "activated whole blood with BFA", "experimental": "The cytokine expression of monocytes was evaluated in some of the same samples. Monocytes were identified based on their scatter characteristics, their bright lin 1 FITC, anti-HLA-DR PerCP and CD11c APC staining. […] Intracellular protein secretion is evaluated as PE mean fluorescence intensity (MFI)."}, "[3]": {"system": "CD11c^− DCs", "conditions": "CD11c− subset; whole blood; activator 4 hours at 37° C. without Brefeldin A", "experimental": "(§1) Venous blood of normal donors was collected in sodium heparin […]® tubes. For activation with LPS, the blood was stimulated with 1 μg/mL LPS. […] PMA was then added at 5 ng/mL and ionomycin at 1 μg/mL. For activation by CD40 crosslinking, 50 μL CD40-coated polystyrene beads was added to 1 mL whole blood. All samples were incubated for four hours at 37° C. in a humidified incubator with 5% CO2.\nFor detection of changes in surface antigen expression, samples were incubated with DC activator, as above, without the further addition of BFA. Control (resting) aliquots were incubated with neither BFA nor activator.\nCell preparation was done at room temperature (RT) and all incubation steps were performed in the dark.\nFor staining, 150 μL of sample (activated or resting blood control) was added to a cocktail of monoclonal antibodies in a staining tube.\nAfter incubation, 3 mL of FACS® Lysing Solution was added and the tube incubated for 10 min at RT. The lysed cells were centrifuged for 5 min at 500×g and subsequently washed with 3 mL buffer (DPBS 1×, 0.5% fetal calf serum). The cell pellet was resuspended in 250 μL buffer and immediately acquired on a flow cytometer. If data acquisition was delayed, the cells were maintained at 4° C. for up to one hour.\nThe samples as described above were acquired on a FACSCalibur™ dual laser flow cytometer (BDIS, San Jose, Calif.). […]"}, "[4]": {"system": "CD11c^+CD123^low DCs", "conditions": "CD11c+ subset; whole blood; activator 4 hours at 37° C. with Brefeldin A", "experimental": "as §1\n(§2) For detection of intracellular cytokines, activation, as above, was performed in the presence additionally of Brefeldin A (BFA) at 10 μg/mL. Control (resting) aliquots were incubated with BFA alone.\n(§3) Cell preparation was done at room temperature (RT), and all incubation steps were performed in the dark.\n(§4) For staining, 1 mL of sample (activated or resting blood control) was added to a cocktail of dendritic cell-distinguishing antibodies (20 μL lineage cocktail 1-FITC, 10 μL HLA-DR PerCP, 5 μL CD11c APC; reagent volumes per 50 μL blood) in a 50 mL polypropylene centrifuge tube. The blood was incubated in the presence of the fluorophore-conjugated antibodies for 15 min. After incubation, 40 mL FACS® Lysing Solution was added and the tube incubated for a further 10 min. The cells were then collected by centrifugation for 10 min at 500×g, and the pellet gently broken off for further processing. Next, 10 mL FACS® Permeabilizing Solution was added and the cells were incubated for 10 min. […]"}, "[5]": {"system": "CD11c^−CD123^+ DCs", "conditions": "CD11c−CD123+ subset; whole blood", "experimental": "as §1, §2, §3, §4"}}, "note": "Entries after “also recorded” stand apart in the source; their conditions may differ.", "data": [{"substance": "Lipopolysaccharide [LPS]", "values": [{"measurement": "order of cytokine production (kinetics of the response)", "setting": "[1]", "result": "TNFα is produced first, followed by IL-1β and IL-6"}, {"measurement": "time of activation after which CD80 is intensely upregulated", "setting": "[1]", "result": "about 4 hours"}, {"measurement": "cytokine expression of monocytes compared with CD11c+ DCs (PE MFI)", "setting": "[2]", "result": "higher levels; also recorded: much more potently"}, {"measurement": "CD80 change in surface expression (ratio of MFI activated versus control)", "setting": "[3]", "result": "upregulation; also recorded: strongest signal"}, {"measurement": "CD86 change in surface expression (ratio of MFI activated versus control)", "setting": "[3]", "result": "upregulation"}, {"measurement": "IL-12 expression (intracellular, MFI)", "setting": "[4]", "result": "trace levels"}, {"measurement": "production of any of the tested cytokines", "setting": "[5]", "result": "absence of detectable cytokine production; also recorded: fail to respond"}]}]}
